Laboratory results taken from patent US9447100B2, “Substituted pyrazolo[1,5-A] pyrimidines as calcium receptor modulating agents” (Takeda Pharmaceutical Company Limited, priority 2002, dated 2016).
Where a name gives a salt, the structure may show the parent alone.

Row | SMILES | melting point [°C]
1 | CCC(CC)(NC(=O)c1cnn2c1NC(c1ccc(C)cc1C)CC2(C)C)c1ccc(C)cc1 (centres unmarked) (as salt: HCl) [Example 970, 5-(2,4-dimethylphenyl)-N-(1-ethyl-1-(4-methylphenyl)propyl)-7,7-dimethyl-4,5,6,7-tetrahydropyrazolo[1,5-a]pyrimidine-3-carboxamide] | 150 to 151
2 | CCC(CC)(NC(=O)c1cnn2c1N(C)C(c1ccccc1)CC2(C)C)c1ccc(C)cc1 (centres unmarked) (as salt: HCl) [Example 827, N-(1-ethyl-1-(4-methylphenyl)propyl)-4,7,7-trimethyl-5-phenyl-4,5,6,7-tetrahydropyrazolo[1,5-a]pyrimidine-3-carboxamide] | 120 to 121
3 | O=C(NC12CC3CC(CC(C3)C1)C2)c1cnn2c1NC(c1ccccc1)CC21CCCCC1 (centres unmarked) | 274 to 275
4 | CCC(CC)(NC(=O)c1c(C)nn2c1NC(c1ccccc1Cl)CC2(C)C)c1ccc(C)cc1 (centres unmarked) (as salt: HCl) [Example 968, 5-(2-chlorophenyl)-N-(1-ethyl-1-(4-methylphenyl)propyl)-2,7,7-trimethyl-4,5,6,7-tetrahydropyrazolo[1,5-a]pyrimidine-3-carboxamide] | 173 to 174
5 | CCC(CC)(NC(=O)c1c(C)nn2c1N[C@H](c1ccccc1Cl)CC2(C)C)c1ccc(C)cc1 (as salt: HCl) [Example 1090, (5S)-5-(2-chlorophenyl)-N-(1-ethyl-1-(4-methylphenyl)propyl)-2,7,7-trimethyl-4,5,6,7-tetrahydropyrazolo[1,5-a]pyrimidine-3-carboxamide] | 173 to 174
6 | CCC(CC)(NC(=O)c1c(C)nn2c1NC(c1cccs1)CC2(C)C)c1ccccc1 (centres unmarked) (as salt: HCl) [Example 958, N-(1-ethyl-1-phenylpropyl)-2,7,7-trimethyl-5-(2-thienyl)-4,5,6,7-tetrahydropyrazolo[1,5-a]pyrimidine-3-carboxamide] | 171 to 172
7 | CCC(CC)(NC(=O)c1cnn2c1NC(c1ccccc1)CC2(C)C)c1ccc(C(=O)OC(C)C)cc1 (centres unmarked) [Example 733, isopropyl 4-(1-(((7,7-dimethyl-5-phenyl-4,5,6,7-tetrahydropyrazolo[1,5-a]pyrimidin-3-yl)carbonyl)amino)-1-ethylpropyl)benzoate] | 205 to 206
8 | O=C(c1cnn2c1N[C@H](c1ccccc1)C[C@@H]2C(F)(F)F)N(C1CCCCC1)C1CCCCC1 (stereo in doubt) [Example 373, N,N-dicyclohexyl-5-phenyl-7-(trifluoromethyl)-4,5,6,7-tetrahydropyrazolo[1,5-a]pyrimidine-3-carboxamide] | 243 to 244
9 | CCC(CC)(NC(=O)c1cnn2c1N[C@@H](c1ccccc1)CC2(C)C)c1ccc(SC)cc1 [Example 1067, (5R)-N-(1-ethyl-1-(4-(methylthio)phenyl)propyl)-7,7-dimethyl-5-phenyl-4,5,6,7-tetrahydropyrazolo[1,5-a]pyrimidine-3-carboxamide] | 151 to 152
10 | CCC(CC)(NC(=O)c1cnn2c1NC(c1ccccc1)CC2(C)C)C(C)C (centres unmarked) [Example 620, N-(1,1-diethyl-2-methylpropyl)-7,7-dimethyl-5-phenyl-4,5,6,7-tetrahydropyrazolo[1,5-a]pyrimidine-3-carboxamide] | 155 to 156
11 | CCC(CC)(NC(=O)c1c(C)nn2c1N[C@H](c1ccccc1)CC2(C)C)c1ccc(Cl)cc1 [Example 1041, (5S)-N-(1-(4-chlorophenyl)-1-ethylpropyl)-2,7,7-trimethyl-5-phenyl-4,5,6,7-tetrahydropyrazolo[1,5-a]pyrimidine-3-carboxamide] | 131 to 132
12 | CCCC(CC)(CC)NC(=O)c1cnn2c1N[C@@H](c1ccccc1)CC2(C)C (as salt: HCl) [Example 1072, (5R)-N-(1,1-diethylbutyl)-7,7-dimethyl-5-phenyl-4,5,6,7-tetrahydropyrazolo[1,5-a]pyrimidine-3-carboxamide] | 185 to 186
13 | CCC(CC)(NC(=O)c1c(C)nn2c1NC(c1ccccc1)CC2(C)C)c1ccc(Cl)cc1 (centres unmarked) (as salt: HCl) [Example 723, N-(1-(4-chlorophenyl)-1-ethylpropyl)-2,7,7-trimethyl-5-phenyl-4,5,6,7-tetrahydropyrazolo[1,5-a]pyrimidine-3-carboxamide] | 180 to 181
14 | CCC1(CC)C[C@H](OC)CN1C(=O)c1cnn2c1N[C@@H](c1ccccc1)CC2(C)C [Example 1113, (5R)-3-(((4S)-2,2-diethyl-4-methoxy-1-pyrrolidinyl)carbonyl)-7,7-dimethyl-5-phenyl-4,5,6,7-tetrahydropyrazolo[1,5-a]pyrimidine] | 122 to 124
15 | CC1(C)CC(c2ccccc2)Nc2c(C(=O)O)c(OCCO)nn21 (centres unmarked) [Example 953, 2-(2-hydroxyethoxy)-7,7-dimethyl-5-phenyl-4,5,6,7-tetrahydropyrazolo[1,5-a]pyrimidine-3-carboxylic acid] | 137 to 139
16 | Cc1ccc(C2CC(C)(C)n3nc(C)c(C(=O)O)c3N2)cc1 (centres unmarked) [Example 949, 2,7,7-trimethyl-5-(4-methylphenyl)-4,5,6,7-tetrahydropyrazolo[1,5-a]pyrimidine-3-carboxylic acid] | 181 to 182
17 | CCOC(=O)CCCOc1ccc(C(CC)(CC)NC(=O)c2cnn3c2NC(c2ccccc2)CC3(C)C)cc1 (centres unmarked) [Example 770, ethyl 4-(4-(1-(((7,7-dimethyl-5-phenyl-4,5,6,7-tetrahydropyrazolo[1,5-a]pyrimidin-3-yl)carbonyl)amino)-1-ethyl-propyl)phenoxy)butanoate] | 101 to 102
18 | O=C(NC1(C(=O)N2CCOCC2)CCCCC1)c1cnn2c1N[C@H](c1ccccc1)C[C@@H]2C(F)(F)F [Example 370] | 290 to 291
19 | CCC(CC)(NC(=O)c1cnn2c1NC(c1ccccc1C)CC2(C)C)c1ccc(Cl)cc1 (centres unmarked) [Example 697, N-(1-(4-chlorophenyl)-1-ethylpropyl)-7,7-dimethyl-5-(2-methylphenyl)-4,5,6,7-tetrahydropyrazolo[1,5-a]pyrimidine-3-carboxamide] | 143 to 145
20 | CCCC(CC)(CC)NC(=O)c1c(C)nn2c1NC(c1ccccc1F)CC2(C)C (centres unmarked) (as salt: HCl) [Example 957, N-(1,1-diethylbutyl)-5-(2-fluorophenyl)-2,7,7-trimethyl-4,5,6,7-tetrahydropyrazolo[1,5-a]pyrimidine-3-carboxamide] | 181 to 182
21 | CCCc1ccc(C(CC)(CC)NC(=O)c2cnn3c2NC(c2ccccc2)CC3(C)C)cc1 (centres unmarked) [Example 706, N-(1-ethyl-1-(4-propylphenyl)propyl)-7,7-dimethyl-5-phenyl-4,5,6,7-tetrahydropyrazolo[1,5-a]pyrimidine-3-carboxamide] | 177 to 178
22 | CC1(C)CC(c2ccccc2)Nc2c(C(=O)N(Cc3ccccc3)Cc3ccccc3)cnn21 (centres unmarked) [Example 408, N,N-dibenzyl-7,7-dimethyl-5-phenyl-4,5,6,7-tetrahydropyrazolo[1,5-a]pyrimidine-3-carboxamide] | 206 to 207
23 | CCC(CC)(NC(=O)c1cnn2c1NC(c1ccccc1)CC2(C)C)c1ccc(O)cc1 (centres unmarked) [Example 701, N-(1-ethyl-1-(4-hydroxyphenyl)propyl)-7,7-dimethyl-5-phenyl-4,5,6,7-tetrahydropyrazolo[1,5-a]pyrimidine-3-carboxamide] | 152 to 153
